≈ marks a conversion by molar mass, not a printed value. Each block holds one molecule with its values, some of them ahead of it.
Legend:
[1] = tested on: Staph. aureus; assay: MIC vs Staph. aureus (Table 2); format: cell-based; settings: Staphylococcus aureus, strain not given
Description: (§1) The compounds of the present invention were subjected to standard tests in order to determine the minimum inhibitory concentration in μg/ml needed to inhibit a range of bacterial microorganisms in-vitro.

[2] = tested on: Esch. coli CN314; assay: MIC against Esch. coli CN314 in vitro; format: cell-based; settings: Escherichia coli, read-out: Minimum Inhibitory Concentration (MIC)
Description: as §1

[3] = tested on: St. agalactiae CN1143; assay: MIC against St. agalactiae CN1143 in vitro; format: cell-based; settings: Streptococcus agalactiae, read-out: Minimum Inhibitory Concentration (MIC)
Description: as §1

[4] = tested on: Meningococci; assay: MIC against Meningococci in vitro; format: cell-based; settings: Meningococci (average 5 strains); read-out: Minimum Inhibitory Concentration (MIC)
Description: as §1

[5] = tested on: St. faecalis CN478; assay: MIC against St. faecalis CN478 in vitro; format: cell-based; settings: Enterococcus faecalis, read-out: Minimum Inhibitory Concentration (MIC)
Description: as §1

[6] = tested on: B. fragilis; assay: MIC against B. fragilis in vitro; format: cell-based; settings: Bacteroides fragilis; B. fragilis (average 3-10 strains); read-out: Minimum Inhibitory Concentration (MIC)
Description: as §1

[7] = tested on: Vibrio cholerae ATCC14035; assay: MIC against Vibrio cholerae ATCC14035 in vitro; format: cell-based; settings: ATCC14035, read-out: Minimum Inhibitory Concentration (MIC)
Description: as §1

[8] = tested on: Pr. mirabilis S2409; assay: MIC against Pr. mirabilis S2409 in vitro; format: cell-based; settings: Proteus mirabilis, read-out: Minimum Inhibitory Concentration (MIC)
Description: as §1

[9] = tested on: Gonococci; assay: MIC against Gonococci in vitro; format: cell-based; settings: Gonococci (average 17 strains); read-out: Minimum Inhibitory Concentration (MIC)
Description: as §1

[10] = tested on: Staph. aureus CN491; assay: MIC against Staph. aureus CN491 in vitro; format: cell-based; settings: Staphylococcus aureus, read-out: Minimum Inhibitory Concentration (MIC)
Description: as §1

[11] = Acute toxicity in mouse; settings: in vivo, ip; i.p. mouse
[12] = tested on: anaerobic bacteria; settings: general statement on trimethoprim; cited from earlier work
[13] = tested on: Salmonella dublin; assay: Experimental salmonellosis in calves; format: in vivo; settings: 1 mg/kg daily plus SDZ 20 mg/kg, 5 days from two days after infection; deaths/calves
[14] = tested on: aerobic bacteria; settings: general statement on trimethoprim; cited from earlier work

Structure (SMILES): COc1cc(Cc2cnc(N)nc2N)c2ccc(=O)oc2c1OC [Compound 7, 2,4-Diamino-5-(7,8-dimethoxy-2-oxo-2 --H--1-benzopyran-5-ylmethyl)pyrim]
- MIC [1]: 0.5 µg/mL (≈ 1.52 µM)

Structure (SMILES): COc1cc(Cc2cnc(N)nc2N)c2cccnc2c1N(C)C.Cl.Cl [Compound 15, 2,4-Diamino-5-(8-dimethylamino-7-methoxy-5-quinolylmethyl)pyrimidine dihydrochloride]
- MIC [1]: 0.5 µg/mL

Structure (SMILES): COc1cc(Cc2cnc(N)nc2N)c2ccncc2c1N.Cl.Cl [Compound 25, 2,4-Diamino-5-(8-amino-7-methoxy-5-isoquinolylmethyl)pyrimidine dihydrochloride]
- MIC [2]: 0.05 µg/mL
- MIC [3]: 0.05 µg/mL
- MIC [4]: 3.1 µg/mL
- MIC [5]: 0.05 µg/mL
- MIC [6]: 2.6 µg/mL
- MIC [7]: 0.05 µg/mL
- MIC [8]: 5 µg/mL
- MIC [9]: 8.1 µg/mL
- MIC [10]: 0.05 µg/mL

Structure (SMILES): COc1cc(Cc2cnc(N)nc2N)c2cccnc2c1OC [Compound 24, 2,4-Diamino-5-(7,8-dimethoxy-5-quinolylmethyl)pyrimidine]
- MIC [1]: 0.1 µg/mL (≈ 0.321 µM)

Structure (SMILES): COc1cc(Cc2cnc(N)nc2N)c2c(c1OC)OC(C)(C)C=C2 [Compound 6, 2,4-Diamino-5-(7,8-dimethoxy-2,2-dimethyl-2 --H--1-benzopyran-5-ylmethyl) pyrimidine lactate]
- MIC [1]: 0.05 µg/mL

Structure (SMILES): CC(=O)O.Cc1cc(Cc2cnc(N)nc2N)c2cccnc2c1-n1cccc1 [Compound 18, 2,4-Diamino-5-(8-(1-pyrrolyl)-7-methyl-5-quinolylmethyl)pyrimidine acetate]
- MIC [1]: 0.5 µg/mL

Structure (SMILES): COc1cc(Cc2cnc(N)nc2N)c2c(c1OC)OC(C)CC2 (centres unmarked) [Compound 22, 2,4-Diamino-5-(7,8-dimethoxy-3,4-dihydro-2-methyl-2 --H---1-benzopyran-5-ylmethyl)pyrimidine]
- MIC [1]: 0.1 µg/mL (≈ 0.303 µM)

Structure (SMILES): COc1cc(Cc2cnc(N)nc2N)c2c(c1OC)OC=CC2 [Compound 10, 2,4-Diamino-5-(7,8-dimethoxy-4 --H--1-benzopyran-5-ylmethyl)pyrimidine acetate]
- MIC [1]: 0.05 µg/mL

Structure (SMILES): Cc1cc(Cc2cnc(N)nc2N)c2cccnc2c1N(C)C.Cl.Cl [Compound 9, 2,4-Diamino-5-(8-dimethylamino-7-methyl-5-quinolylmethyl)pyrimidine dihydrochloride]
- MIC [2]: 0.1 µg/mL
- MIC [3]: 0.5 µg/mL
- MIC [4]: > 25 µg/mL
- MIC [5]: 0.05 µg/mL
- MIC [6]: 7.8 µg/mL
- MIC [7]: 0.5 µg/mL
- MIC [8]: 5 µg/mL
- MIC [9]: > 25 µg/mL
- MIC [10]: 0.5 µg/mL

Structure (SMILES): COc1cc(Cc2cnc(N)nc2N)c2c(c1OC)OCCC2 [Compound 2, 2,4-Diamino-5-(3,4-dihydro-7,8-dimethoxy-2 --H--1-benzopyran-5-yl) pyrimidine]
- MIC [1]: 0.5 µg/mL (≈ 1.58 µM)

Structure (SMILES): COc1cc(Cc2cnc(N)nc2N)c2c(c1OC)OC(C)=CC2 [Compound 19, 2,4-Diamino-5-(7,8-dimethoxy-2-methyl-4H--1-benzopyran-5-ylmethyl)pyrimidine]
- MIC [1]: 0.05 µg/mL (≈ 0.152 µM)

Structure (SMILES): COc1cc(Cc2cnc(N)nc2N)c2cccnc2c1SC [Compound 31, 2,4-Diamino-5-(7-methoxy-8-methylthio-5-quinolylmethyl)pyrimidine]
- MIC [2]: 0.1 µg/mL (≈ 0.305 µM)
- MIC [3]: 0.5 µg/mL (≈ 1.53 µM)
- MIC [4]: 14.4 µg/mL (≈ 44 µM)
- MIC [5]: 0.05 µg/mL (≈ 0.153 µM)
- MIC [6]: 3.1 µg/mL (≈ 9.47 µM)
- MIC [7]: 0.05 µg/mL (≈ 0.153 µM)
- MIC [8]: 5 µg/mL (≈ 15.3 µM)
- MIC [9]: 34.4 µg/mL (≈ 105 µM)
- MIC [10]: 0.05 µg/mL (≈ 0.153 µM)

Structure (SMILES): COc1cc(Cc2cnc(N)nc2N)c2cccnc2c1N.Cl.Cl [Compound 8, 2,4-Diamino-5-(8-amino-7-methoxy-5-quinolylmethyl)-pyrimidine dihydrochloride]
- MIC [2]: 0.1 µg/mL
- MIC [3]: 0.1 µg/mL
- LD50 [11]: 500 mg/kg
- MIC [4]: 3.7 µg/mL
- MIC [5]: 0.1 µg/mL
- MIC [6]: 5.2 µg/mL
- MIC [7]: 0.05 µg/mL
- MIC [8]: 1 µg/mL
- MIC [9]: 11.1 µg/mL
- MIC [10]: 0.1 µg/mL

Structure (SMILES): COc1cc(Cc2cnc(N)nc2N)c2ncccc2c1N [Compound 35, 2,4-Diamino-5-(5-amino-6-methoxy-8-quinolylmethyl)pyrimidine]
- MIC [1]: 0.5 µg/mL (≈ 1.69 µM)

Structure (SMILES): COc1ccc(Cc2cnc(N)nc2N)c2cccnc12 [Compound 3, 2,4-Diamino-5-(8-methoxy-5-quinolylmethyl)-pyrimidine]
- MIC [1]: 0.5 µg/mL (≈ 1.78 µM)

Structure (SMILES): COc1cc(Cc2cnc(N)nc2N)c2cccnc2c1 [Compound 29, 2,4-Diamino-5-(7-methoxy-5-quinolylmethyl)pyridimine]
- MIC [1]: 0.5 µg/mL (≈ 1.78 µM)

Structure (SMILES): COc1cc(Cc2cnc(N)nc2N)cc(OC)c1OC [TMP, 2,4-diamino-5-(3,4,5-trimethoxybenzyl)pyrimidine, reference compound]
- MIC [2]: 0.05 µg/mL (≈ 0.172 µM)
- MIC [3]: 0.5 µg/mL (≈ 1.72 µM)
- level of activity against anaerobic bacteria [12]: activity against anaerobic bacteria is less impressive
- MIC [4]: 18 µg/mL (≈ 62 µM)
- MIC [5]: 0.1 µg/mL (≈ 0.344 µM)
- Mortality [13]: 2/7
- MIC [6]: 4 µg/mL (≈ 13.8 µM)
- MIC [7]: 0.5 µg/mL (≈ 1.72 µM)
- MIC [1]: 0.5 µg/mL (≈ 1.72 µM)
- level of activity against aerobic bacteria [14]: excellent level of activity against most aerobic bacteria
- MIC [8]: 5 µg/mL (≈ 17.2 µM)
- MIC [9]: 37.1 µg/mL (≈ 128 µM)
- MIC [10]: 0.5 µg/mL (≈ 1.72 µM)

Structure (SMILES): COc1cc(Cc2cnc(N)nc2N)c2c(c1OC)OC(C)C=C2 (centres unmarked) [Compound 4, 2,4-Diamino-5-(7,8-dimethoxy-2-methyl-2 --H--1-benzopyran-5-ylmethyl) pyrimidine lactate]
- MIC [2]: 0.1 µg/mL
- MIC [3]: 0.05 µg/mL
- MIC [4]: 2.8 µg/mL
- MIC [5]: 0.01 µg/mL
- MIC [6]: 0.48 µg/mL
- MIC [7]: 0.05 µg/mL
- MIC [8]: 5 µg/mL
- MIC [9]: 4.6 µg/mL
- MIC [10]: 0.05 µg/mL

The remaining lines, values ahead:

- MIC [1]: 5 µg/mL (≈ 16.8 µM)
Structure (SMILES): COc1cc(Cc2cnc(N)nc2N)c2cccnc2c1O [Compound 23, 2,4-Diamino-5-(8-hydroxy-7-methoxy-5-quinolylmethyl)pyrimidine]

- MIC [1]: 0.5 µg/mL
Structure (SMILES): Cc1cc(Cc2cnc(N)nc2N)c2cccnc2c1N.Cl [Compound 5, 2,4-Diamino-5-(8-amino-7-methyl-5-quinolylmethyl)-pyrimidine hydrochloride]

- MIC [1]: 0.05 µg/mL (≈ 0.156 µM)
Structure (SMILES): CC=Cc1cc(Cc2cnc(N)nc2N)c2cccnc2c1OC [Compound 14, 2,4-Diamino-5-(8-methoxy-7-(1-propenyl)-5-quinolylmethyl)pyrimidine]

- MIC [1]: 0.5 µg/mL
Structure (SMILES): Cc1cc(Cc2cnc(N)nc2N)c2cccnc2c1.Cl.Cl [Compound 17, 2,4-Diamino-5-(7-methyl-5-quinolylmethyl)-pyrimidine dihydrochloride]

- MIC [1]: 0.05 µg/mL (≈ 0.154 µM)
Structure (SMILES): C=CCc1cc(Cc2cnc(N)nc2N)c2c(c1OC)NCCC2 [Compound 36, 5-(7-allyl-8-methoxy-5-(1,2,3,4-tetrahydro-quinolylmethyl))-2,4-diaminopyrimidine]

- MIC [1]: 0.1 µg/mL (≈ 0.274 µM)
Structure (SMILES): C=CCc1cc(Cc2cnc(N)nc2N)c2cccnc2c1OCCOC [Compound 27, 2,4-Diamino-5-(7-allyl-8-(2-methoxyethoxy)-5-quinolylmethyl)pyrimidine]

- MIC [1]: 0.05 µg/mL (≈ 0.149 µM)
Structure (SMILES): C=CCc1cc(Cc2cnc(N)nc2N)c2ccc(C)nc2c1OC [Compound 16, 5-(7-Allyl-8-methoxy-2-methyl-5-quinolylmethyl)-2,4-diaminopyrimidine]

- MIC [1]: 0.1 µg/mL (≈ 0.311 µM)
Structure (SMILES): C=CCc1cc(Cc2cnc(N)nc2N)c2ccc(C)nc2c1O [Compound 13, 5-(7-Allyl-8-hydroxy-2-methyl-5-quinolylmethyl)-2,4-diaminopyrimidine]

- MIC [1]: 0.05 µg/mL (≈ 0.156 µM)
Structure (SMILES): C=CCc1cc(Cc2cnc(N)nc2N)c2cccnc2c1OC [Compound 12, 5-(7-Allyl-8-methoxy-5-quinolylmethyl)-2,4-diaminopyrimidine]

- MIC [1]: 0.1 µg/mL
Structure (SMILES): Cl.Cl.Nc1ncc(Cc2cc(Cl)c(N)c3ncccc23)c(N)n1 [Compound 28, 2,4-Diamino-5-(8-amino-7-chloro-5-quinolylmethyl)pyrimidine dihydrochloride]

- MIC [1]: 0.05 µg/mL (≈ 0.161 µM)
Structure (SMILES): CCOc1cc(Cc2cnc(N)nc2N)c2cccnc2c1N [Compound 26, 2,4-Diamino-5-(8-amino-7-ethoxy-5-quinolylmethyl)pyrimidine]

- MIC [1]: 5 µg/mL (≈ 17.8 µM)
Structure (SMILES): Cc1cc(Cc2cnc(N)nc2N)c2ncccc2c1N [Compound 34, 2,4-Diamino-5-(5-amino-6-methyl-8-quinolylmethyl)pyrimidine]

- MIC [1]: 0.1 µg/mL
Structure (SMILES): CSc1cc(Cc2cnc(N)nc2N)c2cccnc2c1N.Cl.Cl [Compound 30, 2,4-Diamino-5-(8-amino-7-methylthio-5-quinolylmethyl)pyrimidine dihydrochloride]

- MIC [1]: 0.05 µg/mL (≈ 0.155 µM)
Structure (SMILES): CCCc1cc(Cc2cnc(N)nc2N)c2cccnc2c1OC [Compound 20, 2,4-Diamino-5-(8-methoxy-7-propyl-5-quinolylmethyl)-pyrimidine]

- MIC [1]: 1 µg/mL (≈ 3.25 µM)
Structure (SMILES): C=CCc1cc(Cc2cnc(N)nc2N)c2cccnc2c1O [Compound 11, 5-(7-Allyl-8-hydroxy-5-quinolylmethyl)-2,4-diaminopyrimidine]
